{
  "source": "paper PMC2948132",
  "about": "(The Open Cardiovascular Medicine Journal, 2010)",
  "origin": "cited, not measured here",
  "key": {"[1]": {"tested_on": "classical or alternative C3 convertase", "details": "ref [19]-[22]"}, "[2]": {"tested_on": "primate-derived complement", "details": "reference not given"}, "[3]": {"tested_on": "complement-mediated ischemia/reperfusion injury"}},
  "data": [
    {"substance": "Compstatin", "values": [
      {"measurement": "C3 convertase inhibition, in words", "setting": "[1]", "value": "known to inhibit classical or alternative C3 convertase by preventing C3 cleavage"},
      {"measurement": "species specificity of complement inhibition, in words", "setting": "[2]", "value": "only inhibits primate-derived complement"}
    ]},
    {"substance": "TP20: soluble CR1 decorated with fucosylated tetrasaccharide sialyl Lewisx", "values": [
      {"measurement": "efficacy in animal models of transplantation and IR injury, in words", "setting": "[3]; ref [11],[14],[49],[50]", "value": "effective"}
    ]},
    {"substance": "sCR1: Soluble complement receptor1", "values": [
      {"measurement": "protection against IRI, in words", "setting": "[3]; ref [45],[46]", "value": "successful in offering protection against IRI"}
    ]}
  ]
}
